Experimental data taken from ChEMBL document CHEMBL5226361, “Marine Sponge-Derived Alkaloid Induces Mitochondrial Dysfunction and Inhibits the PI3K/AKT/mTOR Signaling Pathway against Burkitt's Lymphoma” (J Nat Prod, 2023).
Calls of active or inactive are those of the source. The calls are words filed in the database; no cut-off is given here.

Tests used:
Daudi [1] = test: Induction of cell cycle arrest at G0/G1 phase in human Daudi cells assessed as downregulation of Cyclin E1 protein expression at 0.75 to 3 uM incubated for 24 to 48 hrs by Western blot analysis; type: functional, cell-based; details: dose 0.75-3 µM, time 24-48 hrs
[2] = Inhibition of PI3K/AKT/mTOR signalling pathway in human Raji cells assessed as inhibition of PI3K phosphorylation incubated for 24 hrs by Western blot analysis; type: cell-based; details: dose 1.25-5 µM
[3] = Inhibition of PI3K/AKT/mTOR signalling pathway in human Raji cells assessed as increase in ratio of mTOR phosphorylation to total mTOR protein level at 5 uM incubated for 12 hrs in the presence of YS49 by Western blot analysis; type: cell-based
Raji [4] = test: Induction of apoptosis in human Raji cells assessed as upregulation of cytochrome C expression at 1.25 to 5 uM incubated for 24 hrs by Western blot analysis; type: functional, cell-based; details: dose 1.25-5 µM
Daudi [5] = test: Induction of apoptosis in human Daudi cells assessed as late apoptotic cells at 3 uM incubated for 24 hrs in the presence of YS49 by Annexin V-FITC/PI staining based flow cytometric analysis (reference value: 0.0%); type: functional
[6] = Inhibition of PI3K/AKT/mTOR signalling pathway in human Daudi cells assessed as increase in ratio of mTOR phosphorylation to total mTOR protein level at 3 uM incubated for 12 hrs in the presence of YS49 by Western blot analysis; type: cell-based
Raji [7] = test: Induction of apoptosis in human Raji cells assessed as total apoptotic cells at 5 uM incubated for 48 hrs by Annexin-V/PI staining based flow cytometric analysis relative to control; type: functional
Raji [8] = test: Induction of mitochondrial dysfunction in human Raji cells assessed as decrease in ATP-5H protein expression at 2.5 to 5 uM incubated for 48 hrs by Western blot analysis; type: functional, cell-based; details: dose 2.5-5 µM
[9] = Inhibition of PI3K/AKT/mTOR signalling pathway in human Raji cells assessed as inhibition of mTOR phosphorylation incubated for 24 hrs by Western blot analysis; type: cell-based; details: dose 1.25-5 µM
Daudi [10] = test: Induction of mitochondrial dysfunction in human Daudi cells assessed as decrease in ATP content incubated for 24 hrs by CellTiter-Lumi […] assay; type: functional, cell-based; details: dose 0.75-3 µM
Daudi [11] = test: Induction of mitochondrial oxidative damage in human Daudi cells assessed as increase in intracellular mitochondrial superoxide generation at 3 uM incubated for 1 to 6 hrs by MitoSOX red dye based flow cytometric analysis; type: functional, cell-based; details: time 1-6 hrs
Daudi [12] = test: Induction of apoptosis in human Daudi cells assessed as effect on caspase-8 protein expression at 0.75 to 3 uM incubated for 24 hrs by Western blot analysis; type: functional, cell-based; details: dose 0.75-3 µM
Raji [13] = test: Induction of cell cycle arrest in human Raji cells assessed as G2 phase cells at 5 uM incubated for 48 hrs by PI staining based flow cytometry analysis (reference value: 10.06%); type: functional
Raji [14] = test: Induction of apoptosis in human Raji cells assessed as late apoptotic cells at 5 uM incubated for 24 hrs by Annexin V-FITC/PI staining based flow cytometric analysis (reference value: 0.0%); type: functional
Daudi [15] = test: Induction of apoptosis in human Daudi cells assessed as necrotic cells at 3 uM incubated for 24 hrs by Annexin V-FITC/PI staining based flow cytometric analysis (reference value: 1.0%); type: functional
[16] = Inhibition of PI3K/AKT/mTOR signalling pathway in human Raji cells assessed as increase in ratio of PI3K phosphorylation to total PI3K protein level at 5 uM incubated for 12 hrs in the presence of YS49 by Western blot analysis; type: cell-based
Daudi [17] = test: Induction of apoptosis in human Daudi cells assessed as total apoptotic cells at 3 uM incubated for 24 hrs by Annexin-V/PI staining based flow cytometric analysis relative to control; type: functional
Raji [18] = test: Induction of cell cycle arrest at G0/G1 phase in human Raji cells assessed as upregulation of p21 protein expression at 1.25 to 5 uM incubated for 24 to 48 hrs by Western blot analysis; type: functional, cell-based; details: dose 1.25-5 µM, time 24-48 hrs
[19] = Inhibition of PI3K/AKT/mTOR signalling pathway in human Daudi cells assessed as inhibition of PI3K phosphorylation incubated for 24 hrs by Western blot analysis; type: cell-based; details: dose 0.75-3 µM
Raji [20] = test: Induction of apoptosis in human Raji cells assessed as viable cells at 5 uM incubated for 24 hrs by Annexin V-FITC/PI staining based flow cytometric analysis (reference value: 97.8%); type: functional; details: read-out: Activity
Raji [21] = test: Induction of mitochondrial respiratory chain damage in human Raji cells assessed as decrease in NDUFV2 protein expression at 2.5 to 5 uM incubated for 48 hrs by Western blot analysis; type: functional, cell-based; details: dose 2.5-5 µM
Daudi [22] = test: Downregulation of c-Myc expression level in human Daudi cells incubated for 24 hrs by Western blot analysis; type: functional, cell-based; details: dose 0.75-3 µM
Daudi [23] = test: Induction of cell cycle arrest at G0/G1 phase in human Daudi cells assessed as downregulation of CDK4 protein expression at 0.75 to 3 uM incubated for 24 to 48 hrs by Western blot analysis; type: functional, cell-based; details: dose 0.75-3 µM, time 24-48 hrs
Daudi [24] = test: Induction of apoptosis in human Daudi cells assessed as upregulation of cleaved caspase-3 expression at 0.75 to 3 uM incubated for 24 hrs by Western blot analysis; type: functional, cell-based; details: dose 0.75-3 µM
Raji [25] = test: Induction of apoptosis in human Raji cells assessed as upregulation of cleaved caspase-9 expression at 1.25 to 5 uM incubated for 24 hrs by Western blot analysis; type: functional, cell-based; details: dose 1.25-5 µM
Daudi [26] = test: Induction of apoptosis in human Daudi cells assessed as nuclear condensation incubated for 24 hrs by Hoechst 33258/PI staining based fluorescence microscopic analysis; type: functional, cell-based; details: dose 0.75-3 µM
Raji [27] = test: Downregulation of c-Myc expression level in human Raji cells incubated for 24 hrs by Western blot analysis; type: functional, cell-based; details: dose 1.25-5 µM
Raji [28] = test: Induction of mitochondrial respiratory chain damage in human Raji cells assessed as decrease in SDHA protein expression at 2.5 to 5 uM incubated for 48 hrs by Western blot analysis; type: functional, cell-based; details: dose 2.5-5 µM
Daudi [29] = test: Induction of apoptosis in human Daudi cells assessed as effect on cleaved caspase-8 protein expression at 0.75 to 3 uM incubated for 24 hrs by Western blot analysis; type: functional, cell-based; details: dose 0.75-3 µM
Daudi [30] = test: Antiproliferative activity against human Daudi cells assessed as inhibition of cell growth incubated for 48 hrs by CCK-8 assay; type: functional, cell-based
Raji [31] = test: Induction of apoptosis in human Raji cells assessed as effect on Bax protein expression at 1.25 to 5 uM incubated for 24 hrs by Western blot analysis; type: functional, cell-based; details: dose 1.25-5 µM
Daudi [32] = test: Induction of apoptosis in human Daudi cells assessed as necrotic cells at 3 uM incubated for 24 hrs in the presence of YS49 by Annexin V-FITC/PI staining based flow cytometric analysis (reference value: 1.0%); type: functional
Daudi [33] = test: Effect on total PI3K protein level in human Daudi cells at 0.75 to 3 uM incubated for 24 hrs by Western blot analysis; type: functional, cell-based; details: dose 0.75-3 µM
Daudi [34] = test: Induction of apoptosis in human Daudi cells assessed as upregulation of cytochrome C expression at 0.75 to 3 uM incubated for 24 hrs by Western blot analysis; type: functional, cell-based; details: dose 0.75-3 µM
Raji [35] = test: Induction of apoptosis in human Raji cells assessed as early apoptotic cells at 5 uM incubated for 24 hrs by Annexin V-FITC/PI staining based flow cytometric analysis (reference value: 0.8%); type: functional
Daudi [36] = test: Induction of apoptosis in human Daudi cells assessed as nuclear fragmentation incubated for 24 hrs by Hoechst 33258/PI staining based fluorescence microscopic analysis; type: functional, cell-based; details: dose 0.75-3 µM

In the case of `COc1c(OC)c2c3c(nccc3c1-c1cc(C)cc(C)c1)C(c1cc(C)cc(C)c1)=CN2`, the Activity (Daudi [1]) is reported as “Active”, the inhibition [2] is reported as “Dose-Dependent Effect” and the inhibition [3] is reported as “inactive”. For the same compound, the Activity (Raji [4]) was “Active”, the Activity (Daudi [5]) was 1.5% and the inhibition [6] was “inactive”. For the same compound, the Activity (Raji [7]) was 25.8%, the Activity (Raji [8]) was “Active” and the inhibition [9] was “Dose-Dependent Effect”. For the same compound, the Activity (Daudi [10]) was “Dose-Dependent Effect”, the Activity (Daudi [11]) was “Active” and the Activity (Daudi [12]) was “inactive”. The Activity (Raji [13]) was 9.61%, the Activity (Raji [14]) was 4.2% and the Activity (Daudi [15]) was 2.2%. The inhibition [16] was “inactive”, the Activity (Daudi [17]) was 21.6% and the Activity (Raji [18]) was “Active”. The inhibition [19] was “Dose-Dependent Effect”, the viability at 5 µM (Raji [20]) was 56.2% and the Activity (Raji [21]) was “Active”. The Activity (Daudi [22]) was “Dose-Dependent Effect”, the Activity (Daudi [23]) was “Active” and the Activity (Daudi [24]) was “Active”. The Activity (Raji [25]) was “Active”, the Activity (Daudi [26]) was “Dose-Dependent Effect” and the Activity (Raji [27]) was “Dose-Dependent Effect”. The Activity (Raji [28]) was “Active”, the Activity (Daudi [29]) was “inactive” and the IC50 (Daudi [30]) was 3.48 µM. The Activity (Raji [31]) was “inactive”, the Activity (Daudi [32]) was 1.7% and the Activity (Daudi [33]) was “inactive”. For the same compound, the Activity (Daudi [34]) was “Active”, the Activity (Raji [35]) was 21.7% and the Activity (Daudi [36]) was “Dose-Dependent Effect”.
